Data: paper PMC5706701, “Development of a homogenous high-throughput assay for inositol hexakisphosphate kinase 1 activity” (PLoS ONE, 2017)
Where a name gives a salt, the structure may show the parent alone. Read-outs that look alike come from different tables or passages of the source.

Biological target: T1, Human IP6K1 (Homo sapiens, UniProt Q92551)
T1 construct: GST (N, cleaved yes); made in house; host or cells: C43 E. coli, pGEX-6P-2
Experiment: IP6K1 high-throughput screen of the Sigma LOPAC (ADP-Glo Max, single point);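 also: final compound concentration 10µM in 5% DMSO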
Format: biochemical

[1] = LOPAC single-point screen, ADP-Glo Max luminescence raw signal per well
[2] = LOPAC single-point screen, Z-score relative to plate average and StDev
[3] = Sigma LOPAC single-point screen, ADP-Glo Max raw signal per well
[4] = Sigma LOPAC single-point screen, Z-score from plate average and StDev
[5] = LOPAC single-point screen, ADP-Glo Max raw signal per well
[6] = LOPAC single-point screen, Z-score from raw signal with plate average and StDev
[7] = LOPAC single-point screen, Z-score from plate average and StDev
[8] = LOPAC single-point screen, Z-score against plate average and StDev

T1 sequence (Q92551 whole entry): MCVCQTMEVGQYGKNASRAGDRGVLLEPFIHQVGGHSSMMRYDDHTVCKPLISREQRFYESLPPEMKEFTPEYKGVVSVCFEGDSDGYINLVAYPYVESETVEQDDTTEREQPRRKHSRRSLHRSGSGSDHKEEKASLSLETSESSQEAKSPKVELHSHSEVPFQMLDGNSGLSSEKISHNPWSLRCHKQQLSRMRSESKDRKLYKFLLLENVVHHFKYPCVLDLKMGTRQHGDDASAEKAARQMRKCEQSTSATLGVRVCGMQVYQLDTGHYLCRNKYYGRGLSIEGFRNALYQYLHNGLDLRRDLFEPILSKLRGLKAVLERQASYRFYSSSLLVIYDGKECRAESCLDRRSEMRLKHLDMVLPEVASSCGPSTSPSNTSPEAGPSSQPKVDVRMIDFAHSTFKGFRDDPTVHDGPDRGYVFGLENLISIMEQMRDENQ

C[C@]12C=CC(=O)C=C1CC[C@@H]1C2=CC[C@]2(C)[C@@H](C(=O)CN3CCN(c4cc(N5CCCC5)nc(N5CCCC5)n4)CC3)CC[C@@H]12.O=C(O)/C=C\C(=O)O [U-74389G maleate]
Raw Signal [1]: 52844
Z-score [2]: -0.6178

C[C@H](Cc1ccccc1)Nc1ncnc2c1ncn2[C@@H]1O[C@H](CO)[C@@H](O)[C@H]1O [R(-)-N6-(2-Phenylisopropyl)adenosine]
Raw Signal [3]: 58463
Z-score [4]: 0.6838

CC(=O)c1c(O)c(C)c(O)c(Cc2c(O)c3c(c(C(=O)/C=C/c4ccccc4)c2O)OC(C)(C)C=C3)c1O [Rottlerin]
Raw Signal [5]: 55469
Z-score [6]: -0.1078

Cl.NO [Hydroxylamine hydrochloride]
Raw Signal [1]: 61813
Z-score [7]: 1.35

CC(C)C(=O)Nc1ccc([N+](=O)[O-])c(C(F)(F)F)c1 [Flutamide]
Raw Signal [1]: 64684
Z-score [7]: 1.9328

Nc1ncnc2c1c(-c1ccc(Oc3ccccc3)cc1)cn2C1CCCC1
Raw Signal [5]: 53911
Z-score [6]: -0.2551

CN(C)CCC(c1ccccc1)c1ccccn1 (centres unmarked) [Pheniramine maleate]
Raw Signal [5]: 57488
Z-score [8]: 0.2845

Cl.N=C(N)NN [Aminoguanidine hydrochloride]
Raw Signal [5]: 58743
Z-score [8]: 0.1462

Clc1ccc(N2C[C@H]3CC[C@@H](C2)N3)nn1 [DBO-83]
Raw Signal [5]: 54063
Z-score [6]: -0.2242

S=C([S-])OC1CC2CC1C1CCCC21.[K+] [D-609 potassium]
Raw Signal [5]: 55448
Z-score [6]: -0.1119

CC(C)Cc1ccc(C(C)C(=O)O)cc1 (racemic) [(±)-Ibuprofen]
Raw Signal [3]: 57086
Z-score [4]: 0.4524

CCN1CCc2nc(N)oc2CC1.Cl.Cl [B-HT 933 dihydrochloride]
Raw Signal [5]: 56378
Z-score [6]: -0.2704

Cl.N[C@@H](CCC(=O)O)C(=O)O [L-Glutamic acid hydrochloride]
Raw Signal [5]: 55889
Z-score [8]: 0.1466

O=C(CCCN1CC=C(n2c(=O)[nH]c3ccccc32)CC1)c1ccc(F)cc1 [Droperidol]
Raw Signal [1]: 49359
Z-score [2]: -1.18

Cl.O=C(O)C1=CCCN(CCON=C(c2ccccc2)c2ccccc2)C1 [NO-711 hydrochloride]
Raw Signal [3]: 58704
Z-score [4]: 0.7243

CCCn1c(=O)c2[nH]c(-c3ccc(OCC(=O)NCCN)cc3)nc2n(CCC)c1=O [Xanthine amine congener]
Raw Signal [3]: 61437
Z-score [4]: 1.052

C[C@]12CCC(=O)C(O)=C1CC[C@@H]1[C@@H]2CC[C@]2(C)C(=O)CC[C@@H]12 [4-Androsten-4-ol-3,17-dione]
Raw Signal [1]: 53811
Z-score [2]: -0.7225

CCCCCCCCCCCCCCCC(=O)NCCO [Palmitoylethanolamide]
Raw Signal [1]: 51451
Z-score [2]: -0.4944

C[C@H](CCC(=O)NCCS(=O)(=O)O)[C@H]1CC[C@H]2[C@@H]3[C@H](O)C[C@@H]4C[C@H](O)CC[C@]4(C)[C@H]3C[C@H](O)[C@]12C [Sodium Taurocholate]
Raw Signal: 58351
Z-score: 0.07713

N#CC(C#N)=Cc1ccc([N+](=O)[O-])c(O)c1 [Tyrphostin AG 126]
Raw Signal [1]: 65028
Z-score [7]: 1.749

O.c1cnc2c(c1)ccc1cccnc12 [1,10-Phenanthroline monohydrate]
Raw Signal [1]: 52659
Z-score [2]: -0.6537

CC(C)COC(=O)OCN1C(=O)CN(CCN2CC(=O)N(COC(=O)OCC(C)C)C(=O)C2)CC1=O [Sobuzoxane]
Raw Signal [5]: 54088
Z-score [6]: -0.3761

CSc1nc(N)c2ncn([C@@H]3O[C@H](COP(=O)([O-])OP(=O)([O-])OP(=O)([O-])[O-])[C@@H](O)[C@H]3O)c2n1.[Na+].[Na+].[Na+].[Na+]
Raw Signal [5]: 58230
Z-score [8]: 0.05581

COc1ccc(CCN(C)CCCC(C#N)(c2ccc(OC)c(OC)c2)C(C)C)cc1OC.Cl (racemic) [(±)-Verapamil hydrochloride]
Raw Signal [1]: 63315
Z-score [7]: 1.417

Cc1c(C)c2c(c(C)c1O)CCC(C)(CN1CCN(c3cc(N4CCCC4)nc(N4CCCC4)n3)CC1)O2.Cl.Cl (centres unmarked) [U-83836 dihydrochloride]
Raw Signal [1]: 52883
Z-score [2]: -0.6102

CC(=O)[C@H]1CC[C@H]2[C@@H]3CC[C@H]4C[C@H](O)CC[C@]4(C)[C@H]3CC[C@]12C [5alpha-Pregnan-3alpha-ol-20-one]
Raw Signal [5]: 55941
Z-score [8]: -0.01609

Cc1ccc(S(=O)(=O)N[C@@H](CCCCN)C(=O)CCl)cc1.Cl
Raw Signal [1]: 53467
Z-score [2]: -0.4967

O=C(O)CCC(=O)N1CCC[C@H]1C(=O)O [N-Succinyl-L-proline]
Raw Signal [5]: 55499
Z-score [6]: -0.102

NCCS(=O)O [Hypotaurine]
Raw Signal [5]: 53524
Z-score [6]: -0.3337

CN(C)CC[C@@H](c1ccc(Br)cc1)c1ccccn1 [(+)-Brompheniramine maleate]
Raw Signal [1]: 67936
Z-score [7]: 1.765

CCCn1c(C)c(C(=O)c2cccc3ccccc23)c2ccccc21 [JWH-015]
Raw Signal [5]: 54462
Z-score [8]: 0.01151

N#C/C(=C\c1ccc(O)c(O)c1)C(N)=S [Tyrphostin 47]
Raw Signal [1]: 42103
Z-score [2]: -2.705

Cc1cc(C)c(NC(=O)C[C@H](CC(=O)O)c2cccc3ccccc23)c(C(=O)N2CCC3(CCCC3)CC2)c1 [CR 2945]
Raw Signal [5]: 55023
Z-score [8]: 0.1058

CCn1ccnc1CC1COc2ccccc2O1 (centres unmarked) [Imiloxan hydrochloride]
Raw Signal [5]: 52626
Z-score [6]: -0.297

COc1cc([C@@H]2c3cc4c(cc3[C@H](O)[C@H]3COC(=O)[C@H]23)OCO4)cc(OC)c1OC [Podophyllotoxin]
Raw Signal [1]: 50929
Z-score [2]: -0.5821

O=C(O)/C=C\C(=O)O.O=C(O)/C=C\C(=O)O.c1ccc2nc(N3CCNCC3)ccc2c1 [Quipazine dimaleate]
Raw Signal [5]: 57228
Z-score [8]: 0.234

NCCCCCCCCCCN [1,10-Diaminodecane]
Z-score [6]: -0.1121

Nc1ncnc2c1ncn2[C@@H]1O[C@H](COP(=O)(O)CP(=O)(O)OP(=O)([O-])[O-])[C@@H](O)[C@H]1O.[Li+].[Li+]
Raw Signal [1]: 51012
Z-score [2]: -0.5682

COc1cc(C[C@@H](C)N)c(OC)cc1I.Cl [( R)-(-)-DOI hydrochloride]
Raw Signal [5]: 54807
Z-score [8]: -0.07312

CCCCS(=N)(=O)CCC(N)C(=O)O (racemic) [DL-Buthionine-[S,R]-sulfoximine]
Raw Signal [1]: 66724
Z-score [7]: 1.552

C[C@H]1C[C@H]2[C@@H]3CCC4=CC(=O)C=C[C@]4(C)[C@@]3(F)[C@@H](O)C[C@]2(C)[C@@]1(O)C(=O)CO [Betamethasone]
Raw Signal [5]: 58863
Z-score [8]: 0.1673

C=CCN1CC[C@@]2(C)c3cc(O)ccc3C[C@@H]1[C@@H]2C.Cl (racemic) [(±)-N-Allylnormetazocine hydrochloride]
Raw Signal [1]: 52910
Z-score [2]: -0.8812

CNCCC(Oc1ccc(C(F)(F)F)cc1)c1ccccc1 (centres unmarked) [Fluoxetine hydrochloride]
Raw Signal [3]: 60043
Z-score [4]: 0.9903

C[Se]C[C@H](N)C(=O)O.Cl [Se-(methyl)selenocysteine hydrochloride]
Raw Signal [5]: 55528
Z-score [8]: 0.1906

O=C(O)CCC(C(=O)O)N1C(=O)c2ccccc2C1=O [L-Glutamic acid, N-phthaloyl-]
Raw Signal [3]: 59775
Z-score [4]: 0.9042

C[N+](C)(C)CCOC(=O)CCC(=O)OCC[N+](C)(C)C [Succinylcholine chloride]
Raw Signal [1]: 51489
Z-score [2]: -0.881

Br.Br.N=C(N)SCCN
Raw Signal [5]: 59514
Z-score [8]: 0.282

CCN(CC)CCOCCOC(=O)C1(c2ccccc2)CCCC1 [Carbetapentane citrate]
Raw Signal [1]: 67390
Z-score [7]: 1.669

CCN(CC)C(=O)c1ccc(O)c(OC)c1 [Vanillic acid diethylamide]
Raw Signal [5]: 56150
Z-score [8]: 0.1996

C=CC[N+](C)(C)c1ccc(CCC(=O)CCc2ccc([N+](C)(C)CC=C)cc2)cc1.[Br-].[Br-] [BW 284c51]
Raw Signal [5]: 57519
Z-score [8]: -0.06941

N[C@@H](Cc1ccc(O)c(O)c1)C(=O)O [L-3,4-Dihydroxyphenylalanine]
Raw Signal [1]: 43363
Z-score [2]: -2.397

CC[N+](C)(CC)CC(=O)Nc1c(C)cccc1C.[Cl-] [Lidocaine N-methyl hydrochloride]
Raw Signal [1]: 51540
Z-score [2]: -0.4795

O=C(O)CCCCCCC1C(=O)NC(=O)N1CCC(O)C1CCCCC1 (centres unmarked) [BW 245C]
Raw Signal [1]: 64569
Z-score [7]: 1.71

O=c1nc2[nH]c3ccccc3nc-2c(=O)[nH]1 [Alloxazine]
Raw Signal [5]: 56241
Z-score [6]: -0.2945

O=C(O)c1cc(=O)c2ccccc2[nH]1 [Kynurenic acid]
Raw Signal [5]: 53243
Z-score [6]: -0.1933

CN1C[C@H](C(=O)N[C@]2(C)O[C@@]3(O)[C@@H]4CCCN4C(=O)[C@H](Cc4ccccc4)N3C2=O)C[C@@H]2c3cccc4[nH]cc(c34)C[C@H]21 [Dihydroergotamine methanesulfonate]
Raw Signal [1]: 48691
Z-score [2]: -1.315

C[N+](C)(C)CC=O [Betaine aldehyde chloride]
Raw Signal [5]: 58689
Z-score [8]: 0.1367

Foliosidine
Raw Signal [5]: 53530
Z-score [6]: -0.3325

C[N+](C)(C)CCOP(=O)([O-])OP(=O)([O-])OC[C@H]1O[C@@H](n2ccc(N)nc2=O)[C@H](O)[C@@H]1O.[Na+] [Citicoline sodium]
Raw Signal [3]: 63989
Z-score [4]: 1.07

O=S(=O)(c1cccc2c(Cl)cccc12)N1CCCNCC1 [ML-9]
Raw Signal [5]: 57828
Z-score [8]: -0.01499
